Test systems include K562; M14; ACHN; OVCAR-5; SK-OV-3; OVCAR-4; NCI-H23; Hs-578T; MCF7; SF-268; DU-145; MDA-MB-435; SNB-19; SN12C; SF-539; NCI-H460; UACC-257; UACC-62; HCT-15; SR.
Holding throughout (assay): DTP human tumour cell line panel, 48 h

The record followed here is ChEMBL document CHEMBL1201862, “PubChem BioAssay data set” (2004).

SMILES strings stand for the structures.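 Five compound concentrations were applied to cells in 96-well plates for 48 hours; endpoints were derived by simple linear interpolation of the resulting dose-response curve. Here, GI50 denotes the concentration required for 50% inhibition of growth.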 Calls of active or inactive are those of the source. Rule as the data show it: active = GI50 up to about 1.1 µM and inactive = higher. A value given as a limit tells only on which side of the number the result lay.

As a reminder, the GI50 is the concentration at which growth is held to half of that of the control.

Consider `O=C1CC2(CCC(O)(c3ccc(Cl)cc3)C(C(=O)c3ccc(Cl)cc3)C2)C(=O)c2ccccc2N1` (stereo unspecified), for which the GI50 in the test on K562 was 3.28 µM (inactive); in the test on M14, 18.2 µM (inactive); in the test with ACHN it was 3.64 µM (inactive); in the test with OVCAR-5, > 71 µM (inactive); in the test with SK-OV-3, 12.4 µM (inactive); in the test with OVCAR-4 it was 0.877 µM (active). Also, the GI50 in the test on NCI-H23 was 14.6 µM (inactive); in the test on Hs-578T it was 1.48 µM (inactive); in the test with MCF7 it was 22.7 µM (inactive); in the test with SF-268 it was 3.1 µM (inactive); in the test with DU-145, 6.82 µM (inactive); in the test with MDA-MB-435, > 29.9 µM (inactive). Further, the GI50 in the test with SNB-19 is 2.26 µM (inactive); with SN12C, 5.68 µM (inactive); with SF-539, 3.42 µM (inactive); with NCI-H460, 3.33 µM (inactive); with UACC-257 it was 12.2 µM (inactive); in the test with UACC-62, 14.8 µM (inactive). This molecule also came in with a GI50 in the test with HCT-15 greater than 42.7 µM.
`Cn1c(=O)c2c(nc3n2CC(C(=O)O)N3)n(C)c1=O` (stereo unspecified): the GI50 was 9.1 µM (inactive) with K562; > 100 µM (inactive) in the test on M14; > 100 µM (inactive) in the test on ACHN; > 100 µM (inactive) in the test on OVCAR-5; > 100 µM (inactive) in the test on SK-OV-3; > 100 µM (inactive) with OVCAR-4. Besides, the GI50 with NCI-H23, with Hs-578T, in the test on MCF7, in the test with SF-268, in the test with DU-145 and in the test with MDA-MB-435 was > 100 µM (inactive) throughout. In addition, the GI50 in the test with SNB-19, in the test on SN12C, in the test on SF-539, in the test with NCI-H460, in the test on UACC-257 and in the test with UACC-62 was > 100 µM (inactive) each time. Further, in the test with HCT-15, the GI50 is greater than 100 µM.
With `COC(=O)C1CCC(=S)N1C(C)=O` (stereo unspecified), the GI50 in the test on K562, in the test on M14, in the test with ACHN, in the test on OVCAR-5, in the test on SK-OV-3 and in the test with OVCAR-4 was > 100 µM (inactive) each time. Further, the GI50 in the test with NCI-H23, with Hs-578T, in the test on MCF7, in the test on SF-268, in the test with DU-145 and in the test with MDA-MB-435 was > 100 µM (inactive) each time. The GI50 with SNB-19 was > 100 µM (inactive); with NCI-H460, > 100 µM (inactive); in the test on UACC-257, > 100 µM (inactive); in the test on UACC-62, > 100 µM (inactive); in the test with HCT-15 it was greater than 100 µM.
For the molecule `N#Cc1cnn2cc[nH]c12`, the GI50 in the test with K562, in the test with M14, with ACHN, in the test on OVCAR-5, with SK-OV-3 and with OVCAR-4 was > 100 µM (inactive) in each case. The GI50 in the test on NCI-H23, in the test on Hs-578T, in the test on MCF7, in the test with SF-268, in the test on SR and with DU-145 was > 100 µM (inactive) throughout. The GI50 in the test with SNB-19 is > 100 µM (inactive); in the test with SN12C, > 100 µM (inactive); in the test on SF-539 it was 10 µM (inactive); with NCI-H460, > 100 µM (inactive); in the test on UACC-257, > 100 µM (inactive); in the test with UACC-62, > 100 µM (inactive). Besides, the GI50 in the test with HCT-15 is greater than 100 µM.
For `COc1ccccc1NC(=O)C(=O)C(C#N)CC(C)(C)C=O` (stereo unspecified), the GI50 in the test on K562, in the test on M14, in the test on ACHN, with OVCAR-5, with SK-OV-3 and with OVCAR-4 was > 100 µM (inactive) in each case. Moreover, the GI50 with NCI-H23, in the test with Hs-578T, with MCF7, in the test with SF-268, with SR and in the test on MDA-MB-435 was > 100 µM (inactive) each time. In addition, the GI50 was > 100 µM (inactive) with SN12C; > 100 µM (inactive) in the test on SF-539; > 100 µM (inactive) in the test with NCI-H460; > 100 µM (inactive) in the test with UACC-257; > 100 µM (inactive) in the test on UACC-62; greater than 100 µM with HCT-15.
`COc1cccc2c1C(=O)c1c(O)c3c(c(O)c1C2=O)C[C@@](O)(C(=O)CO)C[C@@H]3OC1CC(N(C)C)C(O)C(C)O1` (stereo partly specified): the concentration for 50% growth inhibition (GI50) in the test on K562 was 0.0583 µM (active); with M14, 0.0306 µM (active); in the test on ACHN it was < 0.01 µM (active); with OVCAR-5, 0.0643 µM (active); in the test on SK-OV-3, 0.0728 µM (active); in the test with OVCAR-4, < 0.0189 µM (active). For the same molecule, the concentration for 50% growth inhibition (GI50) in the test with NCI-H23 is 0.0137 µM (active); in the test with Hs-578T it was < 0.01 µM (active); in the test with SF-268, < 0.0126 µM (active); in the test on SR, < 0.01 µM (active); in the test on DU-145, 0.0519 µM (active); in the test with MDA-MB-435, < 0.01 µM (active). Further, the concentration for 50% growth inhibition (GI50) with SNB-19 was 0.0254 µM (active); in the test on SN12C, 0.0189 µM (active); with SF-539, < 0.01 µM (active); in the test on NCI-H460, < 0.01 µM (active); in the test on UACC-257, 0.0285 µM (active); in the test on UACC-62 it was < 0.012 µM (active). The same molecule had a 50% growth inhibitory concentration (GI50) in the test with HCT-15 of 0.0182 µM.
In the case of `Nc1[nH]c(=O)[nH]c(=O)c1Cc1cccc(Cl)c1`, the GI50 was 63.5 µM (inactive) in the test with K562; 84.9 µM (inactive) with M14; > 100 µM (inactive) in the test on ACHN; > 100 µM (inactive) in the test on OVCAR-5; > 100 µM (inactive) in the test with SK-OV-3; 57.9 µM (inactive) in the test with OVCAR-4. The GI50 with NCI-H23 is > 100 µM (inactive); in the test on Hs-578T, 39.6 µM (inactive); with MCF7, 17.9 µM (inactive); with SF-268 it was 38.3 µM (inactive); in the test on MDA-MB-435, 44 µM (inactive); with SNB-19 it was > 100 µM (inactive). The GI50 with SN12C was > 100 µM (inactive); in the test on SF-539, > 100 µM (inactive); in the test with NCI-H460 it was 56.8 µM (inactive); in the test with UACC-257 it was 51.9 µM (inactive); in the test with UACC-62, 34.4 µM (inactive); in the test on HCT-15 it was 84.9 µM.
As to `O=c1c2cc(-c3ccccc3)cnc2sn1-c1ccc(Br)cc1`, the GI50 in the test with K562, in the test with M14, in the test on ACHN, in the test on OVCAR-5, in the test with SK-OV-3 and in the test on OVCAR-4 was > 100 µM (inactive) throughout. Also, the GI50 in the test with NCI-H23, in the test on MCF7, in the test on SF-268, in the test on SR, in the test with DU-145 and in the test with MDA-MB-435 was > 100 µM (inactive) throughout. For the same molecule, the GI50 in the test on SNB-19, with SN12C, in the test with SF-539, with NCI-H460, with UACC-257 and in the test on UACC-62 was > 100 µM (inactive) in each case. This molecule had a GI50 in the test on HCT-15 of 88.9 µM.
With `COC(C)(C)[C@@H]1CCCN1C1=C(C)C(=O)OC1`, the GI50 in the test on K562, in the test with ACHN, with OVCAR-5, in the test with SK-OV-3, with NCI-H23 and with Hs-578T was > 100 µM (inactive) in each case. Besides, the GI50 in the test with MCF7, with SF-268, with SR, with DU-145, in the test with SNB-19 and in the test on SN12C was > 100 µM (inactive) each time. Further, the GI50 in the test with SF-539 is > 100 µM (inactive); with NCI-H460 it was > 100 µM (inactive); in the test with UACC-62, > 100 µM (inactive); with HCT-15, greater than 100 µM.
On to `COC(C)(C)OCCN1CCN(CCN2C3=C(C=C(C(C)=O)C3)Sc3ccccc32)CC1`, for which the GI50 in the test with K562 is 15 µM (inactive); in the test with M14 it was 20.3 µM (inactive); in the test with ACHN, 18.1 µM (inactive); in the test with OVCAR-5, 25.4 µM (inactive); with SK-OV-3, 35.8 µM (inactive); in the test on OVCAR-4 it was 28.6 µM (inactive). For the same molecule, the GI50 in the test with NCI-H23 is 27.2 µM (inactive); with Hs-578T, 15.8 µM (inactive); with SF-268 it was 19.6 µM (inactive); in the test with SR, 15.6 µM (inactive); in the test on DU-145 it was 21.8 µM (inactive); with MDA-MB-435 it was 16 µM (inactive). For the same molecule, the GI50 with SNB-19 was 32.1 µM (inactive); in the test with SN12C it was 26.7 µM (inactive); with SF-539 it was 20.1 µM (inactive); in the test on NCI-H460, 18.8 µM (inactive); with UACC-257, 20.3 µM (inactive); in the test with UACC-62, 15.3 µM (inactive). Further, it took 19.6 µM to inhibit growth with HCT-15 by half (GI50).
For `COCC1OCCN1C` (stereo unspecified), the GI50 with K562, in the test on M14, with ACHN, in the test with OVCAR-5, in the test with SK-OV-3 and in the test with OVCAR-4 was > 100 µM (inactive) throughout. The GI50 with NCI-H23, with Hs-578T, in the test with MCF7, with SF-268, in the test with SR and with MDA-MB-435 was > 100 µM (inactive) throughout. The GI50 in the test with SNB-19 was > 100 µM (inactive); with SF-539, > 100 µM (inactive); in the test with NCI-H460 it was > 100 µM (inactive); in the test on UACC-257, > 100 µM (inactive); with UACC-62, > 100 µM (inactive); in the test on HCT-15, greater than 100 µM.
